In ChEMBL document CHEMBL4011644, “3-Hydroxy-N'-arylidenepropanehydrazonamides with Halo-Substituted Phenanthrene Scaffolds Cure P. berghei Infected Mice When Administered Perorally” (J Med Chem, 2017):
The source made the active and inactive calls. The calls are words filed in the database; no cut-off is given here.

Key:
Plasmodium berghei [1] = assay: Antiplasmodial activity against Plasmodium berghei infected in NMRI mouse assessed as reduction in parasitemia at 50 mg/kg, po administered at 4, 24, 48, 72 hrs post infection measured on day 4 post infection by Peter's test relative to control; format: functional; design: scale not given: the % may be the effect or the level left
Mus musculus [2] = assay: Toxicity in NMRI mouse infected with Plasmodium berghei assessed as diarrhea at 50 mg/kg, ip administered at 4, 24, 48, 72 hrs post infection; format: organism-based; conditions: in vivo
Plasmodium falciparum [3] = assay: Antiplasmodial activity against chloroquine-sensitive asexual blood stages of Plasmodium falciparum 3D7 after 72 hrs by HRP2-based ELISA; format: functional; conditions: 3D7, 72 h
HepG2 = assay: Cytotoxicity against human HepG2 cells by CellTiterGlo assay; format: cell-based
[4] = Selectivity index, ratio of IC50 for human HepG2 cells to IC50 for chloroquine-sensitive asexual blood stages of Plasmodium falciparum 3D7; format: toxicity; conditions: read-out: Ratio IC50
Mus musculus [5] = assay: Toxicity in NMRI mouse infected with Plasmodium berghei assessed as reduction in physical activity at 50 mg/kg, ip administered at 4, 24, 48, 72 hrs post infection; format: organism-based; conditions: in vivo
Plasmodium berghei [6] = assay: Antiplasmodial activity against Plasmodium berghei infected in NMRI mouse assessed as parasite-free mouse at 50 mg/kg, po administered at 4, 24, 48, 72 hrs post infection measured on day 30 by Peter's test; format: functional, organism-based
Plasmodium berghei [7] = assay: Antiplasmodial activity against Plasmodium berghei infected in NMRI mouse assessed as parasite-free mouse at 50 mg/kg, ip administered at 4, 24, 48, 72 hrs post infection measured on day 30 by Peter's test; format: functional, organism-based
Plasmodium falciparum [8] = assay: Antiplasmodial activity against multidrug-resistant asexual blood stages of Plasmodium falciparum Dd2 after 72 hrs by HRP2-based ELISA; format: functional; conditions: Dd2, 72 h
Plasmodium berghei [9] = assay: Antiplasmodial activity against Plasmodium berghei infected in NMRI mouse assessed as reduction in parasitemia at 50 mg/kg, ip administered at 4, 24, 48, 72 hrs post infection measured on day 4 post infection by Peter's test relative to control; format: functional; design: scale not given: the % may be the effect or the level left
Plasmodium berghei [10] = assay: Antiplasmodial activity against Plasmodium berghei infected in NMRI mouse assessed as mean survival time at 50 mg/kg, po administered at 4, 24, 48, 72 hrs post infection by Peter's test (reference value: 6 to 7 day); format: functional
Plasmodium berghei [11] = assay: Antiplasmodial activity against Plasmodium berghei infected in NMRI mouse assessed as mean survival time at 50 mg/kg, ip administered at 4, 24, 48, 72 hrs post infection by Peter's test (reference value: 6 to 7 day); format: functional
Plasmodium berghei [12] = assay: Antiplasmodial activity against Plasmodium berghei infected in NMRI mouse assessed as parasite-free mouse at 30 mg/kg, po administered at 4, 24, 48, 72 hrs post infection measured on day 30 by Peter's test; format: functional, organism-based
Plasmodium berghei [13] = assay: Antiplasmodial activity against Plasmodium berghei infected in NMRI mouse assessed as reduction in parasitemia at 10 mg/kg, po administered at 4, 24, 48, 72 hrs post infection measured on day 4 by Peter's test relative to control; format: functional; design: scale not given: the % may be the effect or the level left
Plasmodium falciparum [14] = assay: Gametocytocidal activity against transgenic GFP-fused Plasmodium falciparum NF54 early stage gametocytes after 72 hrs by Mitotracker Red CMH2XRos staining based confocal microscopic method; format: functional; conditions: NF54, 72 h
Plasmodium berghei [15] = assay: Antiplasmodial activity against Plasmodium berghei infected in NMRI mouse assessed as reduction in parasitemia at 30 mg/kg, po administered at 4, 24, 48, 72 hrs post infection measured on day 4 by Peter's test relative to control; format: functional; design: scale not given: the % may be the effect or the level left
Plasmodium falciparum [16] = assay: Gametocytocidal activity against transgenic GFP-fused Plasmodium falciparum NF54 […] stage gametocytes after 72 hrs by Mitotracker Red CMH2XRos staining based confocal microscopic method; format: functional; conditions: NF54, 72 h
Plasmodium falciparum [17] = assay: Effect on female gamete formation in transgenic GFP-fused Plasmodium falciparum NF54 mature stage-5 gametocytes at 1 uM after 72 hrs under reduced oxygen tension by Mitotracker Red CMH2XRos staining based confocal microscopic method; format: functional
Mus musculus [18] = assay: Toxicity in NMRI mouse infected with Plasmodium berghei assessed as overt toxicity at 50 mg/kg, ip administered at 4, 24, 48, 72 hrs post infection; format: organism-based; conditions: in vivo
Plasmodium berghei [19] = assay: […] activity against GFP-fused Plasmodium berghei liver stage parasites infected in human HepG2-A16-CD81-EGFP cells after 48 hrs by luciferase reporter gene assay; format: functional
Plasmodium berghei [20] = assay: Antiplasmodial activity against Plasmodium berghei infected in NMRI mouse assessed as reduction in parasitemia at 3 mg/kg, po administered at 4, 24, 48, 72 hrs post infection measured on day 4 by Peter's test relative to control; format: functional; design: scale not given: the % may be the effect or the level left
Plasmodium falciparum [21] = assay: Effect on male gamete formation in transgenic GFP-fused Plasmodium falciparum NF54 mature stage-5 gametocytes at 1 uM after 72 hrs under reduced oxygen tension by Mitotracker Red CMH2XRos staining based confocal microscopic method; format: functional
Plasmodium berghei [22] = assay: Antiplasmodial activity against Plasmodium berghei infected in NMRI mouse assessed as parasite free mouse at 3 mg/kg, po administered at 4, 24, 48, 72 hrs post infection measured on day 4 by Peter's test; format: functional, organism-based
Plasmodium berghei [23] = assay: Antiplasmodial activity against Plasmodium berghei infected in NMRI mouse assessed as mean survival time at 30 mg/kg, po administered at 4, 24, 48, 72 hrs post infection by Peter's test (reference value: 6 to 7 day); format: functional
Plasmodium berghei [24] = assay: Antiplasmodial activity against Plasmodium berghei infected in NMRI mouse assessed as mean survival time at 10 mg/kg, po administered at 4, 24, 48, 72 hrs post infection measured on day 4 by Peter's test (reference value: 6 to 7 day); format: functional
Plasmodium berghei [25] = assay: Antiplasmodial activity against Plasmodium berghei infected in NMRI mouse assessed as parasite free mouse at 10 mg/kg, po administered at 4, 24, 48, 72 hrs post infection measured on day 4 by Peter's test; format: functional, organism-based
[26] = target: Voltage-gated inwardly rectifying potassium channel KCNH2 (Homo sapiens, UniProt Q12809); assay: Inhibition of human ERG by fluorescence polarization assay
Voltage-gated inwardly rectifying potassium channel KCNH2, sequence (Q12809 whole entry): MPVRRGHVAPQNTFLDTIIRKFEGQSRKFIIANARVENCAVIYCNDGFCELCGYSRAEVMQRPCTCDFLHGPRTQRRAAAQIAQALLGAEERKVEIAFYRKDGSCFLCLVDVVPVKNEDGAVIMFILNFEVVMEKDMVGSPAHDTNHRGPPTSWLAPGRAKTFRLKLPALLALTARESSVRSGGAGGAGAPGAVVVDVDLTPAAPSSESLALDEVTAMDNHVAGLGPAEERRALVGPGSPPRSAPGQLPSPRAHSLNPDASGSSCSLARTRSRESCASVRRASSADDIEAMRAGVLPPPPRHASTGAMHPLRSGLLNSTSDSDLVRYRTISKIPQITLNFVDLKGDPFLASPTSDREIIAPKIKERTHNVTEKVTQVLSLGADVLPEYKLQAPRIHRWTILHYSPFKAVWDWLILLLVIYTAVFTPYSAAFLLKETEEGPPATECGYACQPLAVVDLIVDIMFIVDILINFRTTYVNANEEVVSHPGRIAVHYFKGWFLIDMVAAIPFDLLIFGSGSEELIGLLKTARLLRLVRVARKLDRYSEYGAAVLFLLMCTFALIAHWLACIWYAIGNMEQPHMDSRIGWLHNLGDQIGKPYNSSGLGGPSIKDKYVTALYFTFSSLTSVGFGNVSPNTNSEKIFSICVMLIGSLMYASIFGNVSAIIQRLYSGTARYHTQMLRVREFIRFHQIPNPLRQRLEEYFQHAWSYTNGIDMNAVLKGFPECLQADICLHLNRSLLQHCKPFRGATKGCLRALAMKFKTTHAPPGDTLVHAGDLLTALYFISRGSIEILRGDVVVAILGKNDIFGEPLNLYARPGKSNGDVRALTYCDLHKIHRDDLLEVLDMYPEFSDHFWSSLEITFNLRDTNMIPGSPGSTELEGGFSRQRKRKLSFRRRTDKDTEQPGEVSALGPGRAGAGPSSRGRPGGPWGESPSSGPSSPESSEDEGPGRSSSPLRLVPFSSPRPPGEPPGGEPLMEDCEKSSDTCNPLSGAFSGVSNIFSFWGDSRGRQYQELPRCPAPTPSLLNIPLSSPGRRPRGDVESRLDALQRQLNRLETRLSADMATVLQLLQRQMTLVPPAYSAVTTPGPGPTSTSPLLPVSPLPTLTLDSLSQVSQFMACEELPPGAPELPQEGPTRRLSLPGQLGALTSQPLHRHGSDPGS

Compound	Activity (Plasmodium berghei [1]) [%]	Activity (Mus musculus [2])	IC50 (Plasmodium falciparum [3]) [nM]	IC50 (HepG2) [nM]	selectivity ratio [4]	Activity (Mus musculus [5])	Activity (Plasmodium berghei [6])	Activity (Plasmodium berghei [7])	IC50 (Plasmodium falciparum [8]) [nM]	Activity (Plasmodium berghei [9]) [%]	MST (Plasmodium berghei [10]) [days]	MST (Plasmodium berghei [11]) [days]	other results
CN1CCN(Cc2cc(/C=N/N=C(\N)CC(O)c3cc4ccccc4c4ccccc34)ccc2O)CC1 (configuration not stated)	98	Non-Toxic	5.2	8400	1620	Non-Toxic	inactive	inactive	9.2	97.6	16	18	
N/C(CC(O)c1cc2c(Cl)cc(Cl)cc2c2cc(C(F)(F)F)ccc12)=N\N=C\c1ccc(F)cc1 (configuration not stated)	99.9		1.8	43800	24300				2.5	99.9	25.3	25.3	Activity (Plasmodium berghei [12]): inactive; Activity (Plasmodium berghei [13]): 80%; IC50 (Plasmodium falciparum [14]): 31 nM; Activity (Plasmodium berghei [15]): 99.4%; IC50 (Plasmodium falciparum [16]): 36 nM; Activity (Plasmodium falciparum [17]): inactive; Activity (Mus musculus [18]): Non-Toxic; IC50 (Plasmodium berghei [19]): 13000 nM; Activity (Plasmodium berghei [20]): <40%; Activity (Plasmodium falciparum [21]): inactive; Activity (Plasmodium berghei [22]): inactive; MST (Plasmodium berghei [23]): 13.7 days; MST (Plasmodium berghei [24]): 5 days; Activity (Plasmodium berghei [25]): inactive
CCN(CC)Cc1cc(/C=N/N=C(\N)CC(O)c2cc3ccccc3c3ccccc23)ccc1O (configuration not stated)	99.9	Non-Toxic	0.97	14300	14700	Non-Toxic	inactive		3.4	99.7	28.2	30	
C[C@H]1[C@H](OC(=O)CCC(=O)O)O[C@@H]2O[C@@]3(C)CC[C@H]4[C@H](C)CC[C@@H]1[C@@]24OO3 [ARTESUNATE]													Activity (Plasmodium berghei [12]): inactive; Activity (Plasmodium berghei [15]): 99%; MST (Plasmodium berghei [23]): 10 days
CCCCN(CCCC)CC(O)c1cc(Cl)cc2c1-c1ccc(Cl)cc1/C2=C/c1ccc(Cl)cc1 (configuration not stated) [LUMEFANTRINE]													IC50 [26]: 377 nM
CN(C)Cc1cc(/C=N/N=C(\N)CC(O)c2cc3ccccc3c3ccccc23)ccc1O (configuration not stated)	99.8	Non-Toxic	2.5	16700	6680	Non-Toxic	inactive	inactive	0.97	99.8	24.7	22	
CCCCC(CCCC)=N/N=C(\N)CC(O)c1cc2ccccc2c2ccccc12 (configuration not stated)	<40	Non-Toxic	8.3	8600	1040	Non-Toxic	inactive	inactive	12	64.8		7	
CCN(CC)CCCC(C)Nc1ccnc2cc(Cl)ccc12 (configuration not stated) [CHLOROQUINE]													Activity (Plasmodium berghei [12]): inactive
N/C(CC(O)c1cc2ccccc2c2ccccc12)=N\N=C\c1ccc(O)c(CN2CCOCC2)c1 (configuration not stated)	89.7	Non-Toxic	29	3700	128	Non-Toxic	inactive	inactive	44	91.3	9.7	14	
CCN(CC)Cc1cc(/C=N/N=C(\N)CC(O)c2cc3c(Cl)cc(Cl)cc3c3cc(C(F)(F)F)ccc23)ccc1O (configuration not stated)	99.8		6.9	42800	6200		inactive		13.8		23		IC50 (Plasmodium falciparum [14]): 453 nM; IC50 (Plasmodium falciparum [16]): 345 nM; Activity (Mus musculus [18]): Non-Toxic; IC50 (Plasmodium berghei [19]): 19100 nM
CCN(CC)Cc1cc(/C=N/N=C(\N)CC(O)c2cc3c(F)cc(F)cc3c3cc(C(F)(F)F)ccc23)ccc1O (configuration not stated)	99.9		3.9	13400	3440				6.1	99.8	29.7	30	IC50 [26]: 390 nM; Activity (Plasmodium berghei [12]): inactive; Activity (Plasmodium berghei [13]): 99.4%; IC50 (Plasmodium falciparum [14]): 218 nM; Activity (Plasmodium berghei [15]): 99.9%; IC50 (Plasmodium falciparum [16]): 110 nM; Activity (Plasmodium falciparum [17]): inactive; Activity (Mus musculus [18]): Non-Toxic; IC50 (Plasmodium berghei [19]): 5200 nM; Activity (Plasmodium berghei [20]): <40%; Activity (Plasmodium falciparum [21]): inactive; Activity (Plasmodium berghei [22]): inactive; MST (Plasmodium berghei [23]): 28.3 days; MST (Plasmodium berghei [24]): 10 days; Activity (Plasmodium berghei [25]): inactive
N/C(CC(O)c1cc2ccccc2c2ccccc12)=N\N=C\c1ccc(O)c(CN2CCCCC2)c1 (configuration not stated)	99	Non-Toxic	2.9	8400	2900	Non-Toxic	inactive	inactive	5.4	98.7	10.3	16.7	
N/C(CC(O)c1cc2ccccc2c2ccccc12)=N\N=C\C1CCCCC1 (configuration not stated)			330	27400	83				720				
N/C(CC(O)c1cc2ccccc2c2ccccc12)=N\N=C1CCCCCC1 (configuration not stated)			180	25400	139		inactive		140				
CCN(CC)Cc1cccc(/C=N/N=C(\N)CC(O)c2cc3ccccc3c3ccccc23)c1 (configuration not stated)			25	16600	664		inactive		36				
CCN(CC)Cc1cc(/C=N/N=C(\N)CC(O)c2cc3ccccc3c3ccccc23)cc(CN(CC)CC)c1O (configuration not stated)	96.7	Toxic	1.5	14300	9530	Toxic	inactive	inactive	3.3	99.8	11	11	
O[C@@H](c1cc(C(F)(F)F)nc2c(C(F)(F)F)cccc12)[C@H]1CCCCN1 [(S,R)-MEFLOQUINE]													Activity (Plasmodium berghei [15]): 99.9%; MST (Plasmodium berghei [23]): 29 days
N/C(CC(O)c1cc2ccccc2c2ccccc12)=N\N=C\c1ccc(F)cc1 (configuration not stated)				> 10000	> 1040				1.14				
O=C1C(O)=C([C@H]2CC[C@H](c3ccc(Cl)cc3)CC2)C(=O)c2ccccc21 [ATOVAQUONE]													IC50 (Plasmodium berghei [19]): 0.26 nM
CCCCC(/C=N/N=C(\N)CC(O)c1cc2ccccc2c2ccccc12)CCCC (configuration not stated)			60	7600	127				92				
